Source: PubChem BioAssay (NCI)
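Briefly, cells in 96-well plates were exposed to five compound concentrations for 48 h, and endpoints were estimated by linear interpolation. GI50 marks 50% less growth. TGI is the concentration that stops growth completely.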

Tests used:
Experiment in all cases: growth of human tumour cells (NCI), 48 h
UO-31 renal = system: UO-31 renal
OVCAR-3 ovarian = system: OVCAR-3 ovarian
M14 melanoma = system: M14 melanoma
UACC-257 melanoma = system: UACC-257 melanoma
LOX IMVI melanoma = system: LOX IMVI melanoma
DU-145 prostate = system: DU-145 prostate
K-562 leukemia = system: K-562 leukemia
COLO 205 colon = system: COLO 205 colon
TK-10 renal = system: TK-10 renal
MCF7 breast = system: MCF7 breast
SNB-75 CNS = system: SNB-75 CNS
HCC-2998 colon = system: HCC-2998 colon
SN12C renal = system: SN12C renal
SK-MEL-5 melanoma = system: SK-MEL-5 melanoma
SF-539 CNS = system: SF-539 CNS
BT-549 breast = system: BT-549 breast
HT29 colon = system: HT29 colon
UACC-62 melanoma = system: UACC-62 melanoma
786-0 renal = system: 786-0 renal
HOP-92 NSCLC = system: HOP-92 NSCLC
OVCAR-5 ovarian = system: OVCAR-5 ovarian
T-47D breast = system: T-47D breast
NCI-H226 lung = system: NCI-H226 lung
HCT-116 colon = system: HCT-116 colon
SK-OV-3 ovarian = system: SK-OV-3 ovarian
MDA-MB-435 = system: MDA-MB-435
HL-60(TB) leukemia = system: HL-60(TB) leukemia
NCI-H23 lung = system: NCI-H23 lung
SF-295 CNS = system: SF-295 CNS
U251 CNS = system: U251 CNS
NCI-H522 lung = system: NCI-H522 lung
MALME-3M melanoma = system: MALME-3M melanoma
ACHN renal = system: ACHN renal
SR leukemia = system: SR leukemia
A549 NSCLC = system: A549 NSCLC
HCT-15 colon = system: HCT-15 colon
SF-268 CNS = system: SF-268 CNS
KM12 colon = system: KM12 colon
CAKI-1 renal = system: CAKI-1 renal
SW-620 colon = system: SW-620 colon
A498 renal = system: A498 renal
HS 578T breast = system: HS 578T breast
RXF 393 renal = system: RXF 393 renal
IGROV1 ovarian = system: IGROV1 ovarian
NCI-H460 lung = system: NCI-H460 lung
CCRF-CEM leukemia = system: CCRF-CEM leukemia
HOP-62 NSCLC = system: HOP-62 NSCLC
SK-MEL-2 melanoma = system: SK-MEL-2 melanoma
MOLT-4 leukemia = system: MOLT-4 leukemia
NCI/ADR-RES ovarian = system: NCI/ADR-RES ovarian
PC-3 prostate = system: PC-3 prostate
MDA-MB-231 breast = system: MDA-MB-231 breast
SNB-19 CNS = system: SNB-19 CNS
OVCAR-4 ovarian = system: OVCAR-4 ovarian
OVCAR-8 ovarian = system: OVCAR-8 ovarian
SK-MEL-28 melanoma = system: SK-MEL-28 melanoma
RPMI-8226 leukemia = system: RPMI-8226 leukemia

O=S(=O)(CCCl)c1ccc(Cl)cc1
GI50 (UO-31 renal): 2.45 µM | TGI (UO-31 renal): 8.16 µM | GI50 (OVCAR-3 ovarian): 2.84 µM | TGI (OVCAR-3 ovarian): 10.6 µM | GI50 (M14 melanoma): 5.18 µM | TGI (M14 melanoma): 22.2 µM | GI50 (UACC-257 melanoma): 2.98 µM | TGI (UACC-257 melanoma): 11.6 µM | GI50 (LOX IMVI melanoma): 1.91 µM | TGI (LOX IMVI melanoma): 5.1 µM | GI50 (DU-145 prostate): 3.33 µM | TGI (DU-145 prostate): 12.3 µM | GI50 (K-562 leukemia): 3.98 µM | TGI (K-562 leukemia): > 100 µM | GI50 (COLO 205 colon): 3.74 µM | TGI (COLO 205 colon): 11.7 µM | GI50 (TK-10 renal): 2.32 µM | TGI (TK-10 renal): 6.44 µM | GI50 (MCF7 breast): 2.19 µM | TGI (MCF7 breast): 10.3 µM | GI50 (SNB-75 CNS): 2.4 µM | TGI (SNB-75 CNS): 29.8 µM | GI50 (HCC-2998 colon): 11.5 µM | TGI (HCC-2998 colon): 25.6 µM | GI50 (SN12C renal): 4.46 µM | TGI (SN12C renal): 16.9 µM | GI50 (SK-MEL-5 melanoma): 6.27 µM | TGI (SK-MEL-5 melanoma): 20.4 µM | GI50 (SF-539 CNS): 2.46 µM | TGI (SF-539 CNS): 7.08 µM | GI50 (BT-549 breast): 3.36 µM | TGI (BT-549 breast): 12.6 µM | GI50 (HT29 colon): 3.23 µM | TGI (HT29 colon): 13.8 µM | GI50 (UACC-62 melanoma): 5.63 µM | TGI (UACC-62 melanoma): 19.4 µM | GI50 (786-0 renal): 6.41 µM | TGI (786-0 renal): 21.4 µM | GI50 (HOP-92 NSCLC): 2.2 µM | TGI (HOP-92 NSCLC): 6.57 µM | GI50 (OVCAR-5 ovarian): 3.56 µM | TGI (OVCAR-5 ovarian): 14.2 µM | GI50 (T-47D breast): 3.69 µM | TGI (T-47D breast): 19.9 µM | GI50 (NCI-H226 lung): 16 µM | TGI (NCI-H226 lung): > 100 µM | GI50 (HCT-116 colon): 2.74 µM | TGI (HCT-116 colon): 11.9 µM | GI50 (SK-OV-3 ovarian): 11.7 µM | TGI (SK-OV-3 ovarian): 98.1 µM | GI50 (MDA-MB-435): 2.7 µM | TGI (MDA-MB-435): 12.6 µM | GI50 (HL-60(TB) leukemia): 2.36 µM | TGI (HL-60(TB) leukemia): 9.79 µM | GI50 (NCI-H23 lung): 4.79 µM | TGI (NCI-H23 lung): 20.6 µM | GI50 (SF-295 CNS): 18.2 µM | TGI (SF-295 CNS): 47.5 µM | GI50 (U251 CNS): 10.1 µM | TGI (U251 CNS): 27.5 µM | GI50 (NCI-H522 lung): 1.41 µM | TGI (NCI-H522 lung): 3.01 µM | GI50 (MALME-3M melanoma): 2.23 µM | TGI (MALME-3M melanoma): 7.2 µM | GI50 (ACHN renal): 3.52 µM | TGI (ACHN renal): 13.1 µM | GI50 (SR leukemia): 3.41 µM | TGI (SR leukemia): > 100 µM | GI50 (A549 NSCLC): 13 µM | TGI (A549 NSCLC): 45.6 µM | GI50 (HCT-15 colon): 2.92 µM | TGI (HCT-15 colon): 12.4 µM | GI50 (SF-268 CNS): 2.87 µM | TGI (SF-268 CNS): 10.8 µM | GI50 (KM12 colon): 12.9 µM | TGI (KM12 colon): 31.4 µM | GI50 (CAKI-1 renal): 2.9 µM | TGI (CAKI-1 renal): 13.2 µM | GI50 (SW-620 colon): 2.43 µM | TGI (SW-620 colon): 11.6 µM | GI50 (A498 renal): 2.26 µM | TGI (A498 renal): 9.94 µM | GI50 (HS 578T breast): 3 µM | TGI (HS 578T breast): 19.2 µM | GI50 (RXF 393 renal): 2.32 µM | TGI (RXF 393 renal): 8.96 µM | GI50 (IGROV1 ovarian): 2.41 µM | TGI (IGROV1 ovarian): 7.44 µM | GI50 (NCI-H460 lung): 6.4 µM | TGI (NCI-H460 lung): 24 µM | GI50 (CCRF-CEM leukemia): 2.95 µM | TGI (CCRF-CEM leukemia): 20.9 µM | GI50 (HOP-62 NSCLC): 15.7 µM | TGI (HOP-62 NSCLC): 30.6 µM | GI50 (SK-MEL-2 melanoma): 2.17 µM | TGI (SK-MEL-2 melanoma): 5.55 µM | GI50 (MOLT-4 leukemia): 3 µM | TGI (MOLT-4 leukemia): > 100 µM | GI50 (NCI/ADR-RES ovarian): 3.86 µM | TGI (NCI/ADR-RES ovarian): 40.6 µM | GI50 (PC-3 prostate): 5.82 µM | TGI (PC-3 prostate): 22.9 µM | GI50 (MDA-MB-231 breast): 2.55 µM | TGI (MDA-MB-231 breast): 9.03 µM | GI50 (SNB-19 CNS): 13.2 µM | TGI (SNB-19 CNS): 41.1 µM | GI50 (OVCAR-4 ovarian): 2.22 µM | TGI (OVCAR-4 ovarian): 10.8 µM | GI50 (OVCAR-8 ovarian): 3.14 µM | TGI (OVCAR-8 ovarian): 12.9 µM | GI50 (SK-MEL-28 melanoma): 2.38 µM | TGI (SK-MEL-28 melanoma): 10.8 µM | GI50 (RPMI-8226 leukemia): 2.8 µM | TGI (RPMI-8226 leukemia): 12 µM
